Test results as given in the NIST ThermoML archive (doi:10.1021/je034279l).
± gives the expanded uncertainty stated by the source.

Key:
[1] = 298.15 K; for surface tension liquid-gas: Pendant drop shape; for mass density: 101.33 kPa, Liquid
[2] = xn = mol fraction of the nth substance listed; details: 298.15 K; for surface tension liquid-gas: Pendant drop shape; for excess molar volume: 101 kPa, Liquid

With Cc1ccccc1C [1,2-dimethylbenzene] the surface tension liquid-gas [1] was 29.35 ± 0.39 mN/m and the mass density [1] was 875.92 ± 0.42 kg/m3.
Molecule Cc1ccccc1C [1,2-dimethylbenzene] + CC(C)OC(C)C has a surface tension liquid-gas ([2]; x2 = 0.1022) of 27.21 ± 0.37 mN/m, a surface tension liquid-gas ([2]; x2 = 0.201) of 25.55 ± 0.36 mN/m and a surface tension liquid-gas ([2]; x2 = 0.3018) of 24.17 ± 0.34 mN/m. It also gave a surface tension liquid-gas ([2]; x2 = 0.4037) of 23.01 ± 0.33 mN/m, a surface tension liquid-gas ([2]; x2 = 0.4997) of 22 ± 0.32 mN/m and a surface tension liquid-gas ([2]; x2 = 0.5998) of 21.03 ± 0.31 mN/m. It also gave a surface tension liquid-gas ([2]; x2 = 0.7013) of 20 ± 0.3 mN/m, a surface tension liquid-gas ([2]; x2 = 0.7987) of 19.15 ± 0.29 mN/m and a surface tension liquid-gas ([2]; x2 = 0.8987) of 18.08 ± 0.28 mN/m. The excess molar volume ([2]; x2 = 0.0506) was -1.77e-07 ± 2.1e-08 m3/mol, the excess molar volume ([2]; x2 = 0.0997) was -3.15e-07 ± 2.2e-08 m3/mol and the excess molar volume ([2]; x2 = 0.1501) was -4.49e-07 ± 2.3e-08 m3/mol. The excess molar volume ([2]; x2 = 0.2003) was -5.74e-07 ± 2.3e-08 m3/mol, the excess molar volume ([2]; x2 = 0.2503) was -6.91e-07 ± 2.4e-08 m3/mol and the excess molar volume ([2]; x2 = 0.3003) was -7.82e-07 ± 2.5e-08 m3/mol. For the same molecule, the excess molar volume ([2]; x2 = 0.35) was -8.39e-07 ± 2.5e-08 m3/mol, the excess molar volume ([2]; x2 = 0.4004) was -8.83e-07 ± 2.5e-08 m3/mol and the excess molar volume ([2]; x2 = 0.4497) was -9.22e-07 ± 2.6e-08 m3/mol. The excess molar volume ([2]; x2 = 0.505) was -9.36e-07 ± 2.6e-08 m3/mol, the excess molar volume ([2]; x2 = 0.5505) was -9.48e-07 ± 2.6e-08 m3/mol and the excess molar volume ([2]; x2 = 0.6001) was -9.1e-07 ± 2.5e-08 m3/mol. For the same molecule, the excess molar volume ([2]; x2 = 0.6509) was -8.82e-07 ± 2.5e-08 m3/mol, the excess molar volume ([2]; x2 = 0.7) was -8.11e-07 ± 2.5e-08 m3/mol and the excess molar volume ([2]; x2 = 0.7502) was -7.47e-07 ± 2.4e-08 m3/mol. The excess molar volume ([2]; x2 = 0.7999) was -6.31e-07 ± 2.4e-08 m3/mol, the excess molar volume ([2]; x2 = 0.8502) was -5.11e-07 ± 2.3e-08 m3/mol and the excess molar volume ([2]; x2 = 0.8997) was -3.69e-07 ± 2.2e-08 m3/mol. It also gave an excess molar volume ([2]; x2 = 0.9493) of -2.1e-07 ± 2.1e-08 m3/mol.
Cc1ccccc1C [1,2-dimethylbenzene] + COC(C)(C)C showed a surface tension liquid-gas ([2]; x2 = 0.0997) of 27.9 ± 0.38 mN/m, a surface tension liquid-gas ([2]; x2 = 0.1996) of 26.62 ± 0.37 mN/m and a surface tension liquid-gas ([2]; x2 = 0.3012) of 25.28 ± 0.35 mN/m. For the same molecule, the surface tension liquid-gas ([2]; x2 = 0.4008) was 24.14 ± 0.34 mN/m, the surface tension liquid-gas ([2]; x2 = 0.4997) was 23.12 ± 0.33 mN/m and the surface tension liquid-gas ([2]; x2 = 0.6012) was 22.17 ± 0.32 mN/m. It also gave a surface tension liquid-gas ([2]; x2 = 0.7002) of 21.3 ± 0.31 mN/m, a surface tension liquid-gas ([2]; x2 = 0.8) of 20.57 ± 0.31 mN/m and a surface tension liquid-gas ([2]; x2 = 0.8999) of 19.78 ± 0.3 mN/m.
With Cc1cccc(C)c1 [1,3-dimethylbenzene] the surface tension liquid-gas [1] was 28.36 ± 0.39 mN/m and the mass density [1] was 859.78 ± 0.49 kg/m3.
Work on Cc1cccc(C)c1 [1,3-dimethylbenzene] + CC(C)OC(C)C yielded a surface tension liquid-gas ([2]; x2 = 0.1019) of 26.38 ± 0.37 mN/m, a surface tension liquid-gas ([2]; x2 = 0.2111) of 24.88 ± 0.35 mN/m and a surface tension liquid-gas ([2]; x2 = 0.3002) of 23.72 ± 0.34 mN/m. The surface tension liquid-gas ([2]; x2 = 0.3999) was 22.67 ± 0.33 mN/m, the surface tension liquid-gas ([2]; x2 = 0.4991) was 21.73 ± 0.32 mN/m and the surface tension liquid-gas ([2]; x2 = 0.6006) was 20.86 ± 0.31 mN/m. The surface tension liquid-gas ([2]; x2 = 0.6994) was 19.91 ± 0.3 mN/m, the surface tension liquid-gas ([2]; x2 = 0.7998) was 19.02 ± 0.29 mN/m and the surface tension liquid-gas ([2]; x2 = 0.8981) was 18.12 ± 0.28 mN/m. It also gave an excess molar volume ([2]; x2 = 0.0514) of -1.35e-07 ± 2.1e-08 m3/mol, an excess molar volume ([2]; x2 = 0.1002) of -2.42e-07 ± 2.1e-08 m3/mol and an excess molar volume ([2]; x2 = 0.1526) of -3.55e-07 ± 2.2e-08 m3/mol. It also gave an excess molar volume ([2]; x2 = 0.1997) of -4.41e-07 ± 2.3e-08 m3/mol, an excess molar volume ([2]; x2 = 0.2501) of -5.2e-07 ± 2.3e-08 m3/mol and an excess molar volume ([2]; x2 = 0.3002) of -5.79e-07 ± 2.3e-08 m3/mol. For the same molecule, the excess molar volume ([2]; x2 = 0.3498) was -6.37e-07 ± 2.4e-08 m3/mol, the excess molar volume ([2]; x2 = 0.4001) was -6.7e-07 ± 2.4e-08 m3/mol and the excess molar volume ([2]; x2 = 0.4516) was -7.11e-07 ± 2.4e-08 m3/mol. For the same molecule, the excess molar volume ([2]; x2 = 0.5012) was -7.15e-07 ± 2.4e-08 m3/mol, the excess molar volume ([2]; x2 = 0.5509) was -7.18e-07 ± 2.4e-08 m3/mol and the excess molar volume ([2]; x2 = 0.6001) was -6.92e-07 ± 2.4e-08 m3/mol. It also gave an excess molar volume ([2]; x2 = 0.65) of -6.71e-07 ± 2.4e-08 m3/mol, an excess molar volume ([2]; x2 = 0.6944) of -6.17e-07 ± 2.4e-08 m3/mol and an excess molar volume ([2]; x2 = 0.7498) of -5.58e-07 ± 2.3e-08 m3/mol. The excess molar volume ([2]; x2 = 0.8005) was -4.77e-07 ± 2.3e-08 m3/mol, the excess molar volume ([2]; x2 = 0.8506) was -3.93e-07 ± 2.2e-08 m3/mol and the excess molar volume ([2]; x2 = 0.8998) was -2.83e-07 ± 2.2e-08 m3/mol. For the same molecule, the excess molar volume ([2]; x2 = 0.95) was -1.64e-07 ± 2.1e-08 m3/mol.
Cc1cccc(C)c1 [1,3-dimethylbenzene] + COC(C)(C)C gave a surface tension liquid-gas ([2]; x2 = 0.1019) of 27.13 ± 0.38 mN/m, a surface tension liquid-gas ([2]; x2 = 0.2019) of 26.05 ± 0.36 mN/m and a surface tension liquid-gas ([2]; x2 = 0.3028) of 24.98 ± 0.35 mN/m. It also gave a surface tension liquid-gas ([2]; x2 = 0.4014) of 23.99 ± 0.34 mN/m, a surface tension liquid-gas ([2]; x2 = 0.4996) of 23.01 ± 0.33 mN/m and a surface tension liquid-gas ([2]; x2 = 0.6006) of 22.08 ± 0.32 mN/m. The surface tension liquid-gas ([2]; x2 = 0.7009) was 21.26 ± 0.31 mN/m, the surface tension liquid-gas ([2]; x2 = 0.8001) was 20.49 ± 0.31 mN/m and the surface tension liquid-gas ([2]; x2 = 0.9004) was 19.76 ± 0.3 mN/m.
In the case of Cc1ccc(C)cc1 [1,4-dimethylbenzene], the surface tension liquid-gas [1] is reported as 27.89 ± 0.38 mN/m and the mass density [1] is reported as 856.85 ± 0.46 kg/m3.
In the case of COC(C)(C)C [2-methoxy-2-methylpropane], the surface tension liquid-gas [1] is reported as 19.25 ± 0.29 mN/m and the mass density [1] is reported as 735.48 ± 0.27 kg/m3.
Molecule COC(C)(C)C [2-methoxy-2-methylpropane] + Cc1ccc(C)cc1 has a surface tension liquid-gas ([2]; x1 = 0.1008) of 26.85 ± 0.37 mN/m, a surface tension liquid-gas ([2]; x1 = 0.1998) of 25.81 ± 0.36 mN/m and a surface tension liquid-gas ([2]; x1 = 0.3012) of 24.78 ± 0.35 mN/m. For the same molecule, the surface tension liquid-gas ([2]; x1 = 0.4026) was 23.84 ± 0.34 mN/m, the surface tension liquid-gas ([2]; x1 = 0.4997) was 22.96 ± 0.33 mN/m and the surface tension liquid-gas ([2]; x1 = 0.6004) was 22.08 ± 0.32 mN/m. For the same molecule, the surface tension liquid-gas ([2]; x1 = 0.6993) was 21.24 ± 0.31 mN/m, the surface tension liquid-gas ([2]; x1 = 0.8) was 20.48 ± 0.3 mN/m and the surface tension liquid-gas ([2]; x1 = 0.9002) was 19.78 ± 0.3 mN/m.
With CC(C)OC(C)C [diisopropyl ether] the surface tension liquid-gas [1] was 17.31 ± 0.28 mN/m and the mass density [1] was 718.38 ± 0.76 kg/m3.
CC(C)OC(C)C [diisopropyl ether] + Cc1ccc(C)cc1 gave a surface tension liquid-gas ([2]; x1 = 0.0988) of 26.3 ± 0.36 mN/m, a surface tension liquid-gas ([2]; x1 = 0.2012) of 24.84 ± 0.35 mN/m and a surface tension liquid-gas ([2]; x1 = 0.2991) of 23.73 ± 0.34 mN/m. The surface tension liquid-gas ([2]; x1 = 0.4045) was 22.68 ± 0.33 mN/m, the surface tension liquid-gas ([2]; x1 = 0.5096) was 21.66 ± 0.32 mN/m and the surface tension liquid-gas ([2]; x1 = 0.603) was 20.76 ± 0.31 mN/m. For the same molecule, the surface tension liquid-gas ([2]; x1 = 0.7) was 19.91 ± 0.3 mN/m, the surface tension liquid-gas ([2]; x1 = 0.7987) was 19.02 ± 0.29 mN/m and the surface tension liquid-gas ([2]; x1 = 0.898) was 18.18 ± 0.28 mN/m. The excess molar volume ([2]; x1 = 0.0527) was -1.36e-07 ± 2.1e-08 m3/mol, the excess molar volume ([2]; x1 = 0.1016) was -2.79e-07 ± 2.2e-08 m3/mol and the excess molar volume ([2]; x1 = 0.15) was -3.98e-07 ± 2.2e-08 m3/mol. It also gave an excess molar volume ([2]; x1 = 0.2011) of -5.1e-07 ± 2.3e-08 m3/mol, an excess molar volume ([2]; x1 = 0.2527) of -5.88e-07 ± 2.4e-08 m3/mol and an excess molar volume ([2]; x1 = 0.3004) of -6.58e-07 ± 2.4e-08 m3/mol. It also gave an excess molar volume ([2]; x1 = 0.3509) of -7.3e-07 ± 2.4e-08 m3/mol, an excess molar volume ([2]; x1 = 0.4007) of -7.61e-07 ± 2.5e-08 m3/mol and an excess molar volume ([2]; x1 = 0.4506) of -7.85e-07 ± 2.5e-08 m3/mol. The excess molar volume ([2]; x1 = 0.5044) was -8.02e-07 ± 2.5e-08 m3/mol, the excess molar volume ([2]; x1 = 0.5507) was -7.95e-07 ± 2.5e-08 m3/mol and the excess molar volume ([2]; x1 = 0.6002) was -7.87e-07 ± 2.5e-08 m3/mol. It also gave an excess molar volume ([2]; x1 = 0.6498) of -7.56e-07 ± 2.5e-08 m3/mol, an excess molar volume ([2]; x1 = 0.7007) of -7.02e-07 ± 2.4e-08 m3/mol and an excess molar volume ([2]; x1 = 0.7497) of -6.25e-07 ± 2.4e-08 m3/mol. The excess molar volume ([2]; x1 = 0.7999) was -5.37e-07 ± 2.3e-08 m3/mol, the excess molar volume ([2]; x1 = 0.8512) was -4.32e-07 ± 2.3e-08 m3/mol and the excess molar volume ([2]; x1 = 0.9) was -3.18e-07 ± 2.2e-08 m3/mol. For the same molecule, the excess molar volume ([2]; x1 = 0.9507) was -1.78e-07 ± 2.1e-08 m3/mol.
